# Data from patent US10399966B2, “Compounds for treatment of trypanosomes and neurological pathogens and uses thereof” (The University of North Carolina at Chapel Hill, priority 2016, dated 2019).
# Read-outs that look alike come from different tables or passages of the source.
# Tests used:
# T. b. brucei = test: In vitro antitrypanosomal activity against T. brucei (growth inhibition); type: cell-based, Trypanosoma brucei
# Summary of the method: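 Dose-response EC50 against T. brucei parasites with 0.4% DMSO final, 48 h at 37 °C; parasite density quantified by ATP luminescence (CellTiter-Glo).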
# Plasmodium falciparum = test: Antimicrobial activity against Plasmodium falciparum; type: cell-based; conditions: Table 1, Plasmodium falciparum
# Leishmania amazonensis = test: Antimicrobial activity against Leishmania amazonensis; type: cell-based; conditions: Table 1, Leishmania amazonensis
# [1] = Metabolic stability in mouse liver microsomes; type: in vitro ADME
# Experimental: Metabolic stability was evaluated using liver microsomes derived from mouse and human sources. Microsomal incubations were carried out according to a protocol described previously (Wang et al., Antimicrob. Agents Chemother. 54:2507 (2010)) with modifications. Briefly, substrate stock solutions were prepared in DMSO and DMSO content was kept at 0.5% (v/v) in final incubations. Incubation mixtures ([…]), liver microsomes (0.5 mg/mL) from mouse (pool of 1000, CD-1 male mouse) or human (pool of 50, mixed gender) (XenoTech LLC, Lenexa, Kans.) in a phosphate buffer (100 mM, pH 7.4) containing 3.3 mM MgCl2. After a 5-minute pre-equilibration period at 37° C., reactions (in triplicate) were initiated by adding the NADPH cofactor (1 mM). For NADPH-independent reactions, the cofactor was replaced with water. Aliquots (10 μl) of the reaction mixtures were removed at 0, 15, 30, and 60 minutes and individually mixed with 200 μL of ice-cold acetonitrile containing internal standard. The mixtures were vortex-mixed, and precipitated protein was removed by centrifugation at 2,250×g for 15 min. The supernatant fractions were dried using a 96-well microplate evaporator (Apricot Designs Inc., Covina, Calif.) under N2 at 50° C. and reconstituted with 100 μL 50% methanol containing 0.1% trifluoroacetic acid before UPLC-MS/MS analysis. In vitro half-life (t1/2) was obtained by analyzing the substrate concentration vs. incubation time curve using the one-phase exponential decay model (GraphPad Prism® 5.0, San Diego, Calif.).
# [2] = Distribution between mouse plasma and brain (brain penetration, ip); type: in vivo
# Summary of the method: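 Mice (n=3) received a single 5 mg/kg ip dose in 7% Tween 80, 3% ethanol, 5% DMSO, 0.9% saline and were sacrificed 1 h post-dose. Plasma and acetonitrile brain homogenates analysed by LC/MS/MS; brain concentration corrected for 2.5% vasculature volume, assuming 1 g = 1 mL.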
# [3] = Brain and plasma time-course after oral dosing; type: in vivo, mouse
# Experimental: The brain and plasma concentrations of compound 1 were studied in a time-course experiment following oral dosing at 50 mg/kg (Table 15). […] At 24 h, the plasma concentrations are undetectable and brain levels are down to sub-micromolar concentrations. Compared to the previous experiment (Table 14), the BPR ratio for 1 is lower at 1 h post-dose (1.48 vs. 4.0) probably due to the oral route of administration (as opposed to the ip route used before) leading to slower systemic absorption and distribution.
# [4] = Efficacy PK blood samples, acute model; type: in vivo, mouse; conditions: 50 mg/kg po b.i.d.
# Experimental: In a model of the acute phase of HAT, five mice infected with T. b. rhodesiense STIB900 were given the test compound at 50 mg/kg po b.i.d.×4 days, beginning 2 days post-infection. Efficacy PK blood samples were collected from three of the five mice prior to dose 7, and at 1 h and 6 h post-dose. Average plasma levels of the test compound were 9.1±7.6 μM (pre-dose), 18.6±7.2 μM (1 h), and 15.0±4.2 μM (6 h). Compound 1 attained 5/5 cures as determined by the absence of detectable parasitemia in any of the treated mice 60 days post-infection (FIG. 1).
# [5] = tested on: human lymphocytes CRL-8155; test: Cytotoxicity against CRL-8155 cells
# Experimental: The selectivity of each compound for the parasite over each of the two cell lines was calculated.
# [6] = Table 14, mice, single ip dose 5 mg/kg, one hour post-dose, ± SEM of 3 mice (compound 3: 6 mice)
# [7] = single oral dose 50 mg/kg, mice, 1 h
# [8] = single oral dose 50 mg/kg, mice, 4 h
# [9] = single oral dose 50 mg/kg, mice, 8 h
smiles,measurement,setting,value
"O=C(Nc1ccc2sc(-c3ccc(F)c(F)c3)nc2c1)N1CC[C@H](F)C1 [Compound 1, (S)-2-(3,4-Difluorophenyl)-5-(3-fluoro-N-pyrrolidylamido)benzothiazole]",EC90,"T. b. brucei; Table 1, Trypanosoma brucei, read-out: EC90",54.8 nM
same,EC50,"T. b. brucei; Trypanosoma brucei, Table 1, Trypanosoma brucei, read-out: EC50",34.8 nM
same,EC50,"T. b. brucei; Trypanosoma brucei, Table 6, read-out: T. brucei EC50",34.8 nM
same,EC50,"T. b. brucei; Trypanosoma brucei, Table 8, read-out: T. brucei EC50",34.8 nM
same,EC50,"T. b. brucei; Trypanosoma brucei, Table 11, read-out: T. b. brucei EC50",34.8 nM
same,EC50,"T. b. brucei; Trypanosoma brucei, Table 12, read-out: T. b. brucei EC50",34.8 nM
same,EC50,"T. b. brucei; Trypanosoma brucei, Table 9, read-out: T. brucei EC50",34.8 nM
same,EC90,"T. b. brucei; Trypanosoma brucei, Table 9, read-out: T. brucei EC90",54.8 nM
same,EC50,Plasmodium falciparum,16700 nM
same,EC50,Leishmania amazonensis,> 10000 nM
same,Microsome t1/2 (min) Mouse,[1]; Table 5,>60 min
same,"Mouse microsomes, percentage of compound remaining","[1]; Table 12, after 60 min (where t1/2 > 60 min)",73%
same,half-life at 3 μM,"[1]; male, CD-1, liver microsomes, pH 7.4, mouse microsomes, read-out: microsomal half-life",> 1 h
same,half-life at 1.5 μM,"[1]; male, CD-1, mouse, liver microsomes, pH 7.4, Table 12, 37° C., NADPH (1 mM), microsomes 0.5 mg/mL, test compounds 1.5 μM, read-out: Mouse microsomes t1/2",> 1 h
same,Average brain/plasma ratio,"[2]; Table 2, mouse, n = 3",4.0000 ± 0.624
same,Average [compound] brain,"[2]; Table 8, groups of 3 mice (compound 3: ± SEM of 6 mice)",9.07 ± 6.88 µM
same,Brain/plasma ratio,"[2]; Table 14, mice, single ip dose 5 mg/kg, one hour post-dose",4.0
same,[compound]Brain,[2]; [6],9.07 ± 3.973 µM
same,[compound]Plasma,[2]; [6],2.27 ± 0.888 µM
same,concentration at 1 h,"[2]; mouse, in vivo, 5 mg/kg, Table 2, mouse, n = 3, read-out: Average concentration in brain",9070 ± 6880 nM
same,concentration at 1 h,"[2]; mouse, in vivo, 5 mg/kg, Table 2, mouse, n = 3, read-out: Average concentration in plasma",2270 ± 1540 nM
same,concentration at 60 min,"[2]; mouse, in vivo, 5 mg/kg, Table 5 r15, mouse brain penetration (60 min), n = 3",2270 ± 1540 nM
same,concentration at 1 h,"[2]; mouse, in vivo, 5 mg/kg, Table 8, groups of 3 mice (compound 3: ± SEM of 6 mice), read-out: Average [compound] plasma",2270 ± 1540 nM
same,"AUC0 min-∞, brain","[3]; mouse, in vivo, po, 50 mg/kg",43116.8 ± 2304 µM·min
same,"AUC0 min-∞, plasma","[3]; mouse, in vivo, po, 50 mg/kg",10798 ± 1975 µM·min
same,[compd]Brain,"[3]; mouse, in vivo, po, 50 mg/kg",sub-micromolar
same,Brain/plasma ratio,[3]; [7],1.48
same,[compd]Brain,[3]; [7],38.23 ± 13.51 µM
same,[compd]Plasma,[3]; [7],27.14 ± 9.91 µM
same,Brain/plasma ratio,[3]; [8],4.43
same,[compd]Brain,[3]; [8],45.2 ± 10.4 µM
same,[compd]Plasma,[3]; [8],10.25 ± 2.21 µM
same,Brain/plasma ratio,[3]; [9],5.48
same,[compd]Brain,[3]; [9],48.08 ± 2.47 µM
same,[compd]Plasma,[3]; [9],8.97 ± 1.05 µM
same,Average plasma levels,[4]; 1 h post dose 7,18.6 ± 7.2 µM
same,Average plasma levels,[4]; 6 h post dose 7,15.0 ± 4.2 µM
same,Average plasma levels,[4]; prior to dose 7 (pre-dose),9.1 ± 7.6 µM
same,toxicity to the CRL-8155 cells (in words),[5],no detectable toxicity
same,EC50,"[5]; read-out: CRL-8155 EC50, concentration required to inhibit growth by 50%, human lymphoblasts",> 50000 nM
same,EC90,"[5]; read-out: CRL-8155 EC90, concentration required to inhibit growth by 90%, human lymphoblasts",> 50000 nM
